Data reported in patent US6087361A, “Aryl-imidazolines and aryl-imidazoles useful as α-2 adrenergic agonists without cardiovascular side effects” (Allergan Sales, Inc., priority 1997, dated 2000).

How the values were obtained:
[1] = molecular target: T1, human α2C (Homo sapiens, UniProt P18825); test: Receptor binding, [3H]rauwolscine, CHO-C4 cells expressing human α2C; details: CHO-C4, 22° C., 30 min
T1 construct: expressed in transfected cells; host or cells: CHO cells (CHO-C4)
T1 sequence (P18825 1-462): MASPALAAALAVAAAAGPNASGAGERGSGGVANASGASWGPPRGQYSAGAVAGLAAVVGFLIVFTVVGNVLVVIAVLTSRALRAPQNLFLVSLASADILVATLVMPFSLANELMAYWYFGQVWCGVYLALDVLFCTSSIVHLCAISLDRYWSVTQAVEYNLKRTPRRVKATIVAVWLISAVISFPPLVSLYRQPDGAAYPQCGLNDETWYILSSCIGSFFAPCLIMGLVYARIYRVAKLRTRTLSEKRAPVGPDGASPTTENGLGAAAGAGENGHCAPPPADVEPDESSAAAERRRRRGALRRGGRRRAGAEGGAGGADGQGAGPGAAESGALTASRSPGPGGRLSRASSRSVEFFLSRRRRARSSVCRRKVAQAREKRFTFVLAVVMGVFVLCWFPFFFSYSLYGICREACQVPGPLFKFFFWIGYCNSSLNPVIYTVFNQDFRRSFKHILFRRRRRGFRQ
Experimental: Cell preparation: Chinese hamster ovary (CHO) cells expressing the human α2A and human α2C (CHO-C10 and CHO-C4 respectively) receptors and CHO cells (CHO-RNG) expressing the rat α2B, adrenoceptor were grown to near confluence in Dulbecco's modified Eagle's medium supplemented with 10% fetal bovine serum using standard cell culture methods. Cells were harvested by scraping and placed into cold buffer of the following composition: 50 mM Tris-HCl, 5 mM EDTA, pH 7.4). […] The pellet fraction was washed (resuspended in Tris-HCl, pH 8 buffer and centrifuged for 15-20 minutes at 49,000× g) 2 times and stored at -100° until binding assay.
Binding Studies: The radioligands [^3 H]rauwolscine (specific activity 80 Ci/mmol) and [^3 H]prazosin (specific activity 76 Ci/mmol) were obtained from New England Nuclear, Boston, Mass. Frozen membrane pellet was resuspended in 25 mM glycine/glycine, pH 7.5 and incubated with radioligand under the following conditions: CHO-C10, CHO-RNG, CHO-C4-[^3 H]rauwolscine, 22° C., 30 minutes; RKC-[^3 H]rauwolscine, 0° C., 120 minutes; and, HCC-[^3 H]prazosin, 22° C., 30 minutes in a final volume of 500 ul. At the end of the incubation period, the samples were filtered through glass filters (Whatman GF/B) in a 96 well cell harvester and rapidly washed four times with 4 mL of iced-cold 50 mM Tris-HCl buffer. The filters were then oven dried and transferred to scintillation vials containing 10 mL of Beckman's Ready Protein® scintillation cocktail for counting. […] Protein concentrations were determined with a protein assay kit from Bio Rad. Binding isotherms, equilibrium dissociation and affinity constants were analyzed and determined by the non-linear least squares curve fitting programs EBDA (BioSoft) or AccuFit Competition/Saturation by Beckman.
The radioligands [^3 H] rauwolscine (specific activity 80 Ci/mmol) and [^3 H] prazosin (specific activity 76 Ci/mmol) were obtained from New England Nuclear, Boston, Mass. Frozen membrane pellet was resuspended in 25 mM glycine/glycine, pH 7.4 and incubated with radioligand under the following conditions: CHO-C10, CHO-RNG, CHO-C4-[^3 H]rauwolscine, 22° C., 30 min.; and, HCC-[^3 H]prazowsin, 22° C., 30 minutes in a final volume of 500 ul. At the end of the incubation period, the samples were filtered through glass fiber filters (Whatman GF/B) in a 96 well cell harvester and rapidly washed four times which 4 mL of iced-cold 50 mM Tris-CHI buffer. The filters were then oven dried and transferred to scintillation vials containing 5 mL of Beckman's Ready Protein® scintillation cocktail for counting. […] Protein concentrations were determined with a protein assay kit from Bio lad. Binding isotherms, equilibrium dissociation and affinity constants were analyzed and determined by the non-linear least squares curve fitting programs AccuFit Competition/Saturation by Beckman.
Representative compounds of the present invention were tested according to the procedures given above. […] The receptor binding studies and K1 are measures of the affinity of a compound for a particular receptor.

[2] = rabbit

SMILES	Ki [1] [nM]	IOP of the untreated eye (systemic effect) ([2]; in vivo)	lowering of intraocular pressure (IOP), treated eye ([2]; single drop of 0.001%, topical, one eye)
Cc1ccccc1NC1=NCCN1 [Example 1]	70	–	–
COc1c(C(C)(C)C)cc(C)c(Nc2ncc[nH]2)c1C [Example 22]	88	–	–
COc1ccc(NC2=NCCN2)c(C)c1OC [Example 12]	93	–	–
Cc1c(NC2=NCCN2)ccc2c1OCCO2 [Example 13]	3.5	–	–
c1cc2c(cc1NC1=NCCN1)NCCN2 [Example 7]	463	–	–
CC1CNc2c(ccc(NC3=NCCN3)c2Br)N1 (stereo not drawn) [Example 10]	293	–	–

More lines, in order of falling Ki [1], values ahead:

Ki [1] [nM]	SMILES	IOP of the untreated eye (systemic effect) ([2]; in vivo)	lowering of intraocular pressure (IOP), treated eye ([2]; single drop of 0.001%, topical, one eye)
457	Cc1c(O)cccc1Nc1ncc[nH]1 [Example 20]	–	–
180	Cc1cccc(Nc2ncc[nH]2)c1C [Example 18]	–	–
134	Cc1c(NC2=NCCN2)ccc2c1NC(=O)CO2 [Example 15]	–	–
124	Cc1c(NC2=NCCN2)ccc2c1NCCN2 [Example 8]	–	–
120	Brc1c(NC2=NCCN2)ccc2c1NCCN2 [Example 9]	–	–
21	Nc1cc(Cl)c(NC2=NCCN2)c(Cl)c1 [Example 3]	–	–
8.9	Cc1c(NC2=NCCN2)ccc2c1NCCO2 [Example 16]	without lowering IOP in the untreated eye	greater effect in lowering IOP than clonidine
